Laboratory results taken from US7071293B1, “Alpha helical peptides with broad spectrum antimicrobial activity that are insensitive to salt” (priority 1999, dated 2006).
Read-outs that look alike come from different tables or passages of the source. Ends that are not written are not given here.

Tests used:
MRSA ATCC 33591 = conditions: ATCC 33591, pH 7.4
E. coli ML-35p = conditions: Table 13; for MIC E. coli [NaCl] High: high salt underlay (10 mM sodium phosphate buffer +100 mM NaCl, pH 7.4); for MIC E. coli [NaCl] Low: low salt underlay (10 mM sodium phosphate buffer, pH 7.4)
S. aureus 930918-3 = conditions: 930918-3, pH 7.4
P. aeruginosa PAO1 = conditions: for EC50 P. aeruginosa PAO1 μg/ml ± sem: average ± sem
E. coli DH5α = conditions: for EC50: DH5α; for EC50 E. coli DH5α: ionic strength 25 mM, avg ± sem
P. aeruginosa MR 3007 = conditions: MR 3007, pH 7.4
[1] = ionic strength 25 mM, avg ± sem
[2] = ionic strength 175 mM, avg ± sem

Substance	MIC MRSA [NaCl] High (MRSA ATCC 33591) [µg/mL]	MIC MRSA [NaCl] Low (MRSA ATCC 33591) [µg/mL]	MIC E. coli [NaCl] High (E. coli ML-35p) [µg/mL]	MIC E. coli [NaCl] Low (E. coli ML-35p) [µg/mL]	MIC S. aureus [NaCl] High (S. aureus 930918-3) [µg/mL]	MIC S. aureus [NaCl] Low (S. aureus 930918-3) [µg/mL]	EC50 P. aeruginosa PAO1 (P. aeruginosa PAO1; [1]) [µg/mL]	EC50 (E. coli DH5α) [µM]	EC50 E. coli DH5α (E. coli DH5α) [µg/mL]	MIC P. aeruginosa [NaCl] High (P. aeruginosa MR 3007) [µg/mL]	MIC P. aeruginosa [NaCl] Low (P. aeruginosa MR 3007) [µg/mL]	EC50 P. aeruginosa PAO1 μg/ml ± sem (P. aeruginosa PAO1; ionic strength 25 mM) [µg/mL]	EC50 P. aeruginosa PAO1 μg/ml ± sem (P. aeruginosa PAO1; ionic strength 175 mM) [µg/mL]	EC50 P. aeruginosa PAO1 (P. aeruginosa PAO1; [2]) [µg/mL]	other results
KIKEKLKKIGQKIQG [CAP18-15b]	>250	>250	>250	1.6	>250	>250	10.3 ± 0.3	4.15 ± 1.04	7.23 ± 1.81	>250	8.7				EC50 P. aeruginosa PAO1 (P. aeruginosa PAO1; PAO1): >80 µg/mL
LRRIIRKIIHIIK-NH2 [SMAP29X-13A]												0.27 ± 0.03	2.23 ± 0.41		
RRIIRKIIHIIKK-NH2 [SMAP29X-13B]												0.22 ± 0.02	1.51 ± 0.09		
KNIRRIIRKIIHIIKKYG [SMAP29X-18C]							0.24 ± 0.01							0.61 ± 0.12	
RIIRKIIHIIK-NH2 [SMAP29X-11B]												0.46 ± 0.02	10.42 ± 0.26		
RRIIRKIIHII-NH2 [SMAP29X-11A]												0.38 ± 0.04	4.92 ± 0.43		
IRRIIRKIIHIIKK-NH2 [SMAP29X-14C]							0.29 ± 0.04							1.21 ± 0.05	
KNLRRIIRKIIHIIKKYG-NH2 [SMAP29X-18A]							0.22 ± 0.00							0.49 ± 0.02	
LRKFRNKIKEKLKKIGQKIQG [CAP18-21b]	>250	10.3	0.5	2.3	>250	16.3	1.83 ± 0.51	1.17 ± 0.13	2.99 ± 0.33	23.5	2.9			3.45 ± 0.02	
RIIRKIIHII-NH2 [SMAP29X-10]												0.51 ± 0.00	18.67 ± 0.97		
NLRRIIRKIIHIIKKY-NH2 [SMAP29X-16B]							0.75							3.78	
RKFRNKIKEKLKKIG [CAP18-15a]	>250	>250	0.7	0.2	>250	19.5	1.54 ± 0.43	0.24 ± 0.07	0.46 ± 0.12	5.3	1.5				EC50 P. aeruginosa PAO1 (P. aeruginosa PAO1; PAO1): >20 µg/mL
KIKEKLKKIGQKIQGLL [CAP18-17]	>250	>250	1.9	9.7	>250	>250	2.33 ± 0.35	1.27 ± 0.2	2.51 ± 0.38	>250	5.1				EC50 P. aeruginosa PAO1 (P. aeruginosa PAO1; PAO1): >25 µg/mL
